Literature values, collected in patent US20180193304A1, “PHYTOTERPENOID FACILITATION OF THERAPEUTIC ONSET AND EFFICACY OF SUBLINGUAL CANNABINOID ADMINISTRATION” (JC Pharma Inc., priority 2017, published 2018).

Key:
inflammation [1] = conditions: mouse, in vivo
inflammation [2] = conditions: compared to steroid alternatives
[3] = system: experimental airways allergic inflammation; conditions: oral
CB2 receptor [4] = target: T1, CB2 receptor (Homo sapiens, UniProt P34972)
CB2 receptor [5] = target: T1, CB2 receptor; remark: listed apart in the source

T1 sequence (P34972 whole entry): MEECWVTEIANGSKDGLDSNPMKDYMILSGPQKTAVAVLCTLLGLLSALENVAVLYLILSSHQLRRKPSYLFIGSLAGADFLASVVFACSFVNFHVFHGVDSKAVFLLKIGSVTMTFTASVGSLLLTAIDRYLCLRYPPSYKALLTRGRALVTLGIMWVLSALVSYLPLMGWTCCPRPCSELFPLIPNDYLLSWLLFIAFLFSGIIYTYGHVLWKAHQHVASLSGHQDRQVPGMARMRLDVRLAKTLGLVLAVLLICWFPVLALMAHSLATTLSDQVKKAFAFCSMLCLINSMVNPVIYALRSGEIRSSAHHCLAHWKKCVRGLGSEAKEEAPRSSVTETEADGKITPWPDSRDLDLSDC

C/C1=C\CC/C(C)=C/CC(C)(C)/C=C/C1 [humulene]
reduction of inflammation and pain relief (inflammation [1]): effective in reducing inflammation and offering pain relief | anti-inflammatory response (inflammation [2]): comparable anti-inflammatory responses to steroid alternatives | reduction of inflammation [3]: highly effective at reducing inflammation

C=C1CC/C=C(\C)CC[C@@H]2[C@@H]1CC2(C)C [β-caryophyllene]
binding to the CB2 receptor (CB2 receptor [4]): selectively binds to the CB2 receptor | functional activity at CB2 receptor (CB2 receptor [5]): functional CB2 agonist | anti-inflammatory response (inflammation [2]): comparable anti-inflammatory responses to steroid alternatives
